Laboratory results reported in ChEMBL document CHEMBL2016574, “Substituted aminopyrimidine protein kinase B (PknB) inhibitors show activity against Mycobacterium tuberculosis” (Bioorg Med Chem Lett, 2012).
Calls of active or inactive are those of the source. No cut-off for these calls is given here.

What was measured:
[1] = target: Serine/threonine-protein kinase PknG (Mycobacterium tuberculosis) (UniProt P9WI73); test: Inhibition of Mycobacterium tuberculosis PknG
[2] = target: T1, Serine/threonine-protein kinase PknF (Mycobacterium tuberculosis) (UniProt P9WI75); test: Inhibition of Mycobacterium tuberculosis PknF
T1 sequence (whole entry): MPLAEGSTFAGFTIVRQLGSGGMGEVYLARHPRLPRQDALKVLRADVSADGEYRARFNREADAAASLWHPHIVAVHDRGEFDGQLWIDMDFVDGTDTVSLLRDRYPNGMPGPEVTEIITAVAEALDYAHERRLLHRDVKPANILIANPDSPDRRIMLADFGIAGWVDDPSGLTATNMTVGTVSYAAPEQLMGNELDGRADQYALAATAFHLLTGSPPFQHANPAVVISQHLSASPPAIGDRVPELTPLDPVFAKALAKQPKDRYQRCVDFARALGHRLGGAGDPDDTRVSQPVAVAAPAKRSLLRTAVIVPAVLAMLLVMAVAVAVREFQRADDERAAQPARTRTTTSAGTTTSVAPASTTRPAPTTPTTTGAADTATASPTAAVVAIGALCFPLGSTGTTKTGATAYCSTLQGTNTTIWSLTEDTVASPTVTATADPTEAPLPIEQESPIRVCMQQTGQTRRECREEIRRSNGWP

[3] = Protein binding in plasma; type: ADME, cell-free; conditions: read-out: PPB

Chain of Serine/threonine-protein kinase PknG (Mycobacterium tuberculosis) (P9WI73 whole entry): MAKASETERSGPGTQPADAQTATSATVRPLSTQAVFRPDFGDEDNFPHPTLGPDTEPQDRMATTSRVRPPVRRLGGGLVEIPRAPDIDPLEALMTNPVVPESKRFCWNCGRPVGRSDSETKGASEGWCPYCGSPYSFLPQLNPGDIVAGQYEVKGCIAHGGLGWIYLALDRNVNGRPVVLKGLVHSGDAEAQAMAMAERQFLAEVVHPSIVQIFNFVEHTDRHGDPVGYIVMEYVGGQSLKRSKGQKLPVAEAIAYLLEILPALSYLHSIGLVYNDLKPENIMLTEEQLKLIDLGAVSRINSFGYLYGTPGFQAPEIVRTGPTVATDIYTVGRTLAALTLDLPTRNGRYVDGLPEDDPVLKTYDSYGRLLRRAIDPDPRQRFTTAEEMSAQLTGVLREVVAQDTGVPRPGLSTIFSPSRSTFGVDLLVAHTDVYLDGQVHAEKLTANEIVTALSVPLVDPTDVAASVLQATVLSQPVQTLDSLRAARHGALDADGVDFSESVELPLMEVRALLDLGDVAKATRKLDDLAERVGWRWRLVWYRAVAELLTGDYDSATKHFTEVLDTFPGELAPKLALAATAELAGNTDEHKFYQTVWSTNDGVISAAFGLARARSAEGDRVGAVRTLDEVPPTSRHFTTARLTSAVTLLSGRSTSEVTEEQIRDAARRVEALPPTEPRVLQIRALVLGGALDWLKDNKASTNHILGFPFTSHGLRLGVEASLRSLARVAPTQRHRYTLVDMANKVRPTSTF

SMILES	inhibition [1]	inhibition [2]	fraction unbound [3]
c1cncc(-c2nccc(Nc3cc(C4CC4)[nH]n3)n2)c1	Active	Active	
c1ccc2c(Nc3cc(C4CC4)[nH]n3)nc(NCC3CC3)nc2c1	Active	Active	
c1ccc2c(Nc3cc(C4CC4)n[nH]3)nc(-c3ccncc3)nc2c1			< 0.01
Fc1ccc(-c2nc(Nc3cc(C4CC4)[nH]n3)c3ccccc3n2)cc1	Active	Active	
Fc1ccc(-c2nccc(Nc3cc(C4CC4)[nH]n3)n2)cc1	Active	Active	
CN1CCC(Nc2cc(Nc3cc(C4CC4)[nH]n3)nc(-c3ccccc3)n2)CC1	Active	Active	
CN(C)[C@@H]1CCN(c2cc(Nc3cc(C(F)(F)F)ccn3)nc(-c3cccc(C#N)c3)n2)C1	Active	Active	
CN(C)[C@@H]1CCN(c2cc(Nc3ccccn3)nc(-c3cccc(C#N)c3)n2)C1	Active	Active	
c1ccc(-c2nc(Nc3cc(C4CC4)[nH]n3)cc(OCCN3CCCC3)n2)cc1	Active	Active	
Fc1cccc(CCNc2nccc(Nc3cc(C4CC4)[nH]n3)n2)c1	Active	Active	
CN1CCC(CNc2cc(Nc3cc(C4CC4)[nH]n3)nc(-c3cccc(C#N)c3)n2)CC1	Active	Active	
Cc1cc(Nc2nc(-c3ccncc3)nc3ccccc23)n[nH]1	Active	Active	
CN(C)[C@@H]1CCN(c2cc(Nc3cc(C4CC4)[nH]n3)nc(-c3ccccc3)n2)C1	Active	Active	
CN1CCC(CNc2cc(Nc3cc(C4CC4)[nH]n3)nc(-c3cccc(S(C)(=O)=O)c3)n2)CC1	Active	Active	
CN1CCC(CNc2cc(Nc3cc(C4CC4)[nH]n3)nc(-c3ccccc3)n2)CC1	Active	Active	
Clc1ccccc1CCNc1nccc(Nc2cc(C3CC3)[nH]n2)n1	Active	Active	
CS(=O)(=O)NCc1ccc(-c2nccc(Nc3cc(C4CC4)[nH]n3)n2)cc1	Active	Active	
CN(C)CCNc1cc(Nc2cc(C3CC3)[nH]n2)nc(-c2cccc(C#N)c2)n1	Active	Active	
N#Cc1cccc(-c2nccc(Nc3cc(C4CC4)[nH]n3)n2)c1	Active	Active	
c1ccc(-c2nc(Nc3cc(C4CC4)[nH]n3)c3ccccc3n2)cc1	Active	Active	

SMILES	inhibition [1]	inhibition [2]	fraction unbound [3]
Fc1ccc(-c2nc(Nc3cc[nH]n3)c3ccccc3n2)cc1	Active	Active	< 0.01
c1ccc2c(Nc3cc(C4CC4)n[nH]3)nc(NCC3CC3)nc2c1			< 0.01
Cc1cc(Nc2nc(-c3ccc(F)cc3)nc3ccccc23)n[nH]1	Active	Active	< 0.01
c1cc(Nc2cc(C3CC3)[nH]n2)nc(NCC2CC2)n1	Active	Active	
CS(=O)(=O)c1cccc(-c2nccc(Nc3cc(C4CC4)[nH]n3)n2)c1	Active	Active	
c1ccc2c(Nc3cc(C4CC4)[nH]n3)nc(NC3CCCCC3)nc2c1	Active	Active	< 0.01
CN(C)[C@@H]1CCN(c2cc(Nc3cc(Cl)ccn3)nc(-c3ccccc3)n2)C1	Active	Active	
CN(C)[C@@H]1CCN(c2cc(Nc3cc(C4CC4)[nH]n3)nc(-c3cccc(C#N)c3)n2)C1	Active	Active	
COc1ccnc(Nc2cc(N3CC[C@@H](N(C)C)C3)nc(-c3ccccc3)n2)c1	Active	Active	
c1cc(Nc2cc(C3CC3)[nH]n2)nc(NC2CCCCC2)n1	Active	Active	
c1ccc2c(Nc3cc(C4CC4)[nH]n3)nc(-c3ccncc3)nc2c1	Active	Active	
CC(C)CCNc1nccc(Nc2cc(C3CC3)[nH]n2)n1	Active	Active	
Fc1ccc(-c2nc(Nc3cc(C4CC4)n[nH]3)c3ccccc3n2)cc1			< 0.01
c1cc(Nc2cc(C3CC3)[nH]n2)nc(NC2CCCC2)n1	Active	Active	
CN1CCN(c2cc(Nc3cc(C4CC4)[nH]n3)nc(-c3ccccc3)n2)CC1	Active	Active	
c1ccc(-c2nc(Nc3cc(C4CC4)n[nH]3)c3ccccc3n2)cc1			< 0.01
CS(=O)(=O)Nc1cccc(-c2nccc(Nc3cc(C4CC4)[nH]n3)n2)c1	Active	Active	
c1ccc(CNc2nccc(Nc3cc(C4CC4)[nH]n3)n2)cc1	Active	Active	
CN(C)CCNc1cc(Nc2cc(C3CC3)[nH]n2)nc(-c2ccccc2)n1	Active	Active	
NC(=O)c1cccc(-c2nccc(Nc3cc(C4CC4)[nH]n3)n2)c1	Active	Active	
